Measured values published in PubChem BioAssay (NCI).
Where “and” joins values, the source holds several entries; their conditions need not be identical. Equal values may be shown once.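 Where inhibition never reached the appropriate level, the endpoint shown equals the highest concentration tested. Otherwise, values were interpolated linearly from a five-concentration, 48-hour dose response in 96-well plates. GI50 marks 50% less growth. TGI: total growth inhibition.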

What was measured:
Experiment in all cases: NCI anticancer screen, dose series, 48 h
CAKI-1 renal = tested on: CAKI-1 renal
SW-620 colon = tested on: SW-620 colon
SF-295 CNS = tested on: SF-295 CNS
HS 578T breast = tested on: HS 578T breast
MOLT-4 leukemia = tested on: MOLT-4 leukemia
BT-549 breast = tested on: BT-549 breast
SR leukemia = tested on: SR leukemia
A498 renal = tested on: A498 renal
OVCAR-3 ovarian = tested on: OVCAR-3 ovarian
MDA-MB-435 = tested on: MDA-MB-435

| SMILES | GI50 (CAKI-1 renal) | TGI (CAKI-1 renal) | GI50 (SW-620 colon) | TGI (SW-620 colon) | GI50 (SF-295 CNS) | TGI (SF-295 CNS) | GI50 (HS 578T breast) | TGI (HS 578T breast) | GI50 (MOLT-4 leukemia) | TGI (MOLT-4 leukemia) | GI50 (BT-549 breast) | TGI (BT-549 breast) | GI50 (SR leukemia) | TGI (SR leukemia) | GI50 (A498 renal) | TGI (A498 renal) | GI50 (OVCAR-3 ovarian) | TGI (OVCAR-3 ovarian) | GI50 (MDA-MB-435) | TGI (MDA-MB-435) |
| --- | --- | --- | --- | --- | --- | --- | --- | --- | --- | --- | --- | --- | --- | --- | --- | --- | --- | --- | --- | --- |
| CN1CCN(Cc2ccc(NC(=O)c3[nH]ncc3Nc3ncnc4sccc34)cc2)CC1 | 0.563 µM | > 100 µM | 0.315 µM | > 100 µM | 0.325 µM | > 100 µM | 0.0604 µM | 2.93 µM | 0.207 µM | 0.853 µM | 1.23 µM | 5.56 µM | 0.219 µM | 0.73 µM | 0.0172 µM | 1.12 µM | 0.306 µM | 2.54 µM | 0.394 µM | > 100 µM |
| Oc1ccc(Br)cc1/C=N/NC(=S)NC12CC3CC(CC(C3)C1)C2 | 2.67 µM | 8.59 µM | 1.74 µM | 3.47 µM | 2.6 µM | 7.89 µM | 1.99 µM | 6.69 µM | 1.89 µM | 6.81 µM | 4.36 µM | 15.7 µM | 0.682 µM | 3.47 µM | 2.18 µM | 7.19 µM | 1.67 µM | 3.71 µM | 1.98 µM | 5.45 µM |
| CS(=O)(=O)OCCN(CCOS(C)(=O)=O)c1ccc(C=Nc2ccc3oc(=O)ccc3c2)cc1 |  | 9.11 µM |  | > 83.1 µM |  | 42.2 µM |  | 92.1 µM |  | 15.4 µM |  | 45.7 µM |  | 40.1 µM |  | 4.67 µM |  | 24.1 µM |  | 26.1 µM |
| CCCCSCc1nc2nc(Cl)c(Cl)nc2[nH]1 |  | 79.3 µM |  | > 100 µM |  | 45.6 µM |  | > 100 µM |  | 45.5 µM |  | 79.4 µM |  | 52.3 µM |  | 60.6 µM |  | 36.7 µM |  | > 100 µM |
| CC(=O)NCCCCCCNC(C)=O |  | > 10000 µM |  | > 10000 µM |  | > 10000 µM |  | > 10000 µM |  | > 10000 µM |  | > 10000 µM |  | > 10000 µM |  | > 9690 µM |  | 9840 µM |  | > 10000 µM |
| CCn1c(-c2nonc2N)nc2c(C#CC(C)(C)O)nc(O[C@@H](CN)c3ccccc3)cc21 | 3.7 µM | 12.3 µM | 0.119 µM | 3.17 µM | 0.0333 µM | 1 µM | 0.0453 µM | 1.09 µM | 0.11 µM | 1.97 µM | 0.356 µM | 1.9 µM | 0.099 µM | 3.59 µM | 0.00553 µM | 0.171 µM | 0.0845 µM | 0.314 µM | 0.365 µM | 2.99 µM |
| CCCC[P+](c1ccccc1)(c1ccccc1)c1ccccc1 | > 100 µM | > 100 µM | 3.46 µM | > 100 µM | 5.29 µM | 37.3 µM | 3.38 µM | 20.7 µM | 5.72 µM | > 100 µM | 3.32 µM | 74.7 µM | 1.96 µM | > 100 µM | 3.46 µM | 29.5 µM | 1.13 µM | 23.3 µM | 1.63 µM | 82.6 µM |
| CCCCN(CCCC)CC(C)(C)C(O)c1ccc(OC)c2ccccc12 (stereo not given) | 3.06 µM | 16 µM | 2.54 µM | 14.5 µM | 2.28 µM | 17.8 µM | 4.55 µM | 27 µM | 2.68 µM | 11.7 µM | 12.1 µM | 30.3 µM | 2.89 µM | 8.34 µM | 4.27 µM | 22.9 µM | 2.84 µM | 13.9 µM | 5.05 µM | 28.6 µM |
| O=C(NCCCNC(=O)OCc1ccc2c(Br)cc(Br)c(O)c2n1)OCc1ccc2c(Br)cc(Br)c(O)c2n1 | > 100 µM | > 100 µM | > 100 µM | > 100 µM | > 100 µM | > 100 µM | > 100 µM | > 100 µM | > 100 µM | > 100 µM | > 100 µM | > 100 µM | > 100 µM | > 100 µM | > 100 µM | > 100 µM | > 100 µM | > 100 µM | > 100 µM | > 100 µM |
| CC1CCC2C(C)C3C(CC4C5CC=C6CC(OC7OC(CO)C(O)C(OC8OC(CO)C(O)C(O)C8O)C7OC7OC(C)C(O)C(O)C7O)CCC6(C)C5CCC43C)N2C1 (stereo not given) | > 2.5 µg/mL | 25.1 µM and > 2.5 µg/mL | > 2.5 µg/mL | 31.6 µM and > 2.5 µg/mL | > 2.5 µg/mL | 22.7 µM and > 2.5 µg/mL | > 2.5 µg/mL | 32.6 µM and > 2.5 µg/mL | > 2.5 µg/mL | 60.9 µM and > 2.5 µg/mL | > 2.5 µg/mL | 31.9 µM and > 2.5 µg/mL | > 2.5 µg/mL | 29 µM and > 2.5 µg/mL | > 2.5 µg/mL | 31.7 µM and > 2.5 µg/mL | > 2.5 µg/mL | 31.7 µM and > 2.5 µg/mL | > 2.5 µg/mL | 21 µM and > 2.5 µg/mL |
